Measurements reported in patent publication US6150385A, “1,3,4-thiadiazoles useful for the treatment of CMV infections” (Pharmacia & Upjohn Company, priority 1999, dated 2000).

Target: T1, HCMV polymerase (Human cytomegalovirus, UniProt P08546)
T1 construct: made in house; host or cells: SF-9 insect cells infected with recombinant baculovirus
Assay: HCMV polymerase assay (scintillation proximity assay)
Assay type: biochemical
Conditions: percentage of inhibition at 25 μM concentration in CMV polymerase assay
Summary of the method: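 Values are percent inhibition at 25 μM, measured by scintillation proximity after capture of biotinylated poly(dA)-oligo(dT) (6 nM) extended with 90 nM 3H-dTTP. Recombinant SF-9-derived enzyme reacted 30 min at 25 or 37 °C in HEPES pH 7.5/KCl/MgCl2/BSA buffer, ±2 mM CHAPS, before EDTA termination.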

T1 sequence (P08546 whole entry): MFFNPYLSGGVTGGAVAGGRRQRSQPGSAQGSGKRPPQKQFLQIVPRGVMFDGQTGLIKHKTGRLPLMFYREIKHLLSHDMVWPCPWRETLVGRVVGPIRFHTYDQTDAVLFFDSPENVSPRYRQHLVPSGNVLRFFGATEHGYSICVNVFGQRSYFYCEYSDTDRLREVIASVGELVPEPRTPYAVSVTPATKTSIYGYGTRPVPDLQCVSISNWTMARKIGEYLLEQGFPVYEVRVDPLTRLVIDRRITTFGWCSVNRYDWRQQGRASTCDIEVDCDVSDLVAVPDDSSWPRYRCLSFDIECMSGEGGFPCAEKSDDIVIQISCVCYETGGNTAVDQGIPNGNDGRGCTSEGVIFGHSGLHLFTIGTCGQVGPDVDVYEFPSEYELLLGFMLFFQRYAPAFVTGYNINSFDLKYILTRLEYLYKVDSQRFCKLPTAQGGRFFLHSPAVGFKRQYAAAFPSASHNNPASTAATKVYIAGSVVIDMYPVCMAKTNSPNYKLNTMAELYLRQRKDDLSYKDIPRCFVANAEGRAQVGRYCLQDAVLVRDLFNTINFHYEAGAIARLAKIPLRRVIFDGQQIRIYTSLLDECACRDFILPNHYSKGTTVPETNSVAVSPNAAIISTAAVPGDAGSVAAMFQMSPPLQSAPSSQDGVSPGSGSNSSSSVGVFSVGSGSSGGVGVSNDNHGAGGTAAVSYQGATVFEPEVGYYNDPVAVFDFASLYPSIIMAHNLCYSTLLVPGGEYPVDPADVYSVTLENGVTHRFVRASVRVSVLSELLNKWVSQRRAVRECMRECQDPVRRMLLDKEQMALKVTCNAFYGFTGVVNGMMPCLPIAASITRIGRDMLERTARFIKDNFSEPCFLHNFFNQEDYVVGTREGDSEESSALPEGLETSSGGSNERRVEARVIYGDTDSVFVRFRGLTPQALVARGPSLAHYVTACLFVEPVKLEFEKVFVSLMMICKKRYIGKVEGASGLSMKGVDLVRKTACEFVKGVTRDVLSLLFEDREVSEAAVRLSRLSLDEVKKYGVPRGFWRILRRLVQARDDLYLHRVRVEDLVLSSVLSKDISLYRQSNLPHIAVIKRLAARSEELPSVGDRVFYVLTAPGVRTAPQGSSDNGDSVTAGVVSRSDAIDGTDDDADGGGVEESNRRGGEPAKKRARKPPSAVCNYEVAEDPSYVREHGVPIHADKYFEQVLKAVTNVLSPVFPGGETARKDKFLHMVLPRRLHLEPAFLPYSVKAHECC

Question: `O=C(/C=C/c1ccccc1)Nc1nnc(NCC2CCCCC2)s1` [compound 360, (E)-N-{5-[(cyclohexylmethyl)amino]-1,3,4-thiadiazol-2-yl}-3-phenyl-2-propenamide] was tested. Which inhibition at 25 µM did it give?
Answer: Its inhibition at 25 µM is 29%.

Question: How did the inhibition at 25 µM turn out when `O=C(Nc1nnc(NCc2ccc(F)cc2)s1)c1cc2ccccc2s1` [compound 361, N-{5-[(4-fluorobenzyl)amino]-1,3,4-thiadiazol-2-yl}-1-benzothiophene-2-carboxamide] was run?
Answer: Its inhibition at 25 µM is 28.8%.

Question: Which inhibition at 25 µM does the source give for `O=C(Nc1nnc(NCc2cccc3ccccc23)s1)c1cc(F)cc(F)c1` [compound 362, 3,5-difluoro-N-{5-[(1-naphthylmethyl)amino]-1,3,4-thiadiazol-2-yl}benzamide] here?
Answer: The inhibition at 25 µM was 28.8%.

Question: Which inhibition at 25 µM does the source give for `O=C(Nc1nnc(NCc2cccc3ccccc23)s1)c1ccc(F)cc1F` [compound 363, 2,4-difluoro-N-{5-[(1-naphthylmethyl)amino]-1,3,4-thiadiazol-2-yl}benzamide] here?
Answer: Its inhibition at 25 µM is 28.8%.

Question: For `N#Cc1ccc(C(=O)Nc2nnc(NCC3CCCCC3)s2)cc1` [compound 364, 4-cyano-N-{5-[(cyclohexylmethyl)amino]-1,3,4-thiadiazol-2-yl}benzamide], which inhibition at 25 µM is on record?
Answer: Its inhibition at 25 µM is 28.7%.

Question: `N#Cc1ccc(C(=O)Nc2nnc(NCc3cccs3)s2)cc1` [compound 365, 4-cyano-N-{5-[(2-thienylmethyl)amino]-1,3,4-thiadiazol-2-yl}benzamide] was tested. Which inhibition at 25 µM did it give?
Answer: Its inhibition at 25 µM is 28.7%.

Question: For `COc1ccccc1C(=O)Nc1nnc(NCCc2ccc(S(N)(=O)=O)cc2)s1` [compound 366, N-(5-{[4-(aminosulfonyl)phenethyl]amino}-1,3,4-thiadiazol-2-yl)-2-methoxybenzamide], which inhibition at 25 µM is on record?
Answer: The inhibition at 25 µM was 28.6%.

Question: How did the inhibition at 25 µM turn out when `O=C(Nc1nnc(NC2CCN(Cc3ccccc3)CC2)s1)c1ccc(I)cc1` [compound 367, N-{5-[(1-benzyl-4-piperidinyl)amino]-1,3,4-thiadiazol-2-yl}-4-iodobenzamide] was run?
Answer: Its inhibition at 25 µM is 28.6%.

Question: Which inhibition at 25 µM does the source give for `CCOC(=O)N1CCC(Nc2nnc(NC(=O)c3cc4ccccc4s3)s2)CC1` [compound 368, ethyl 4-({5-[(1-benzothiophen-2-ylcarbonyl)amino]-1,3,4-thiadiazol-2-yl}amino)tetrahydro-1(2H)-pyridinecarboxylate] here?
Answer: The inhibition at 25 µM was 28.5%.

Question: For `O=C(Nc1nnc(NC2CCCCCC2)s1)c1c(Cl)cccc1Cl` [compound 369, 2,6-dichloro-N-[5-(cycloheptylamino)-1,3,4-thiadiazol-2-yl]benzamide], which inhibition at 25 µM is on record?
Answer: The inhibition at 25 µM was 28.3%.

Question: `O=C(Nc1nnc(NCCN2CCCC2)s1)c1c(Cl)cccc1Cl` [compound 370, 2,6-dichloro-N-(5-{[2-(1-pyrrolidinyl)ethyl]amino}-1,3,4-thiadiazol-2-yl)benzamide] was tested. Which inhibition at 25 µM did it give?
Answer: Its inhibition at 25 µM is 28.3%.

Question: For `O=C(Nc1nnc(NCCCN2CCCC2=O)s1)c1ccc(S(=O)(=O)F)cc1` [compound 371, 4-{[(5-{[3-(2-oxo-1-pyrrolidinyl)propyl]amino}-1,3,4-thiadiazol-2-yl)amino]carbonyl}benzenesulfonyl fluoride], which “% Inhib” value is on record?
Answer: Its value is 28.1%.

Question: How did the inhibition at 25 µM turn out when `O=C(Nc1nnc(NCc2ccc3c(c2)OCO3)s1)c1cc(F)cc(F)c1` [compound 372, N-{5-[(1,3-benzodioxol-5-ylmethyl)amino]-1,3,4-thiadiazol-2-yl}-3,5-difluorobenzamide] was run?
Answer: Its inhibition at 25 µM is 28.1%.

Question: With `O=C(Nc1nnc(NCCCCc2ccccc2)s1)c1cc(F)cc(F)c1` [compound 373, 3,5-difluoro-N-{5-[(4-phenylbutyl)amino]-1,3,4-thiadiazol-2-yl}benzamide] as the compound, how does the inhibition at 25 µM read?
Answer: The inhibition at 25 µM was 28.1%.

Question: For `O=C(/C=C/c1ccccc1Cl)Nc1nnc(NC2CCCc3ccccc32)s1` (stereo not shown) [compound 374, (E)-3-(2-chlorophenyl)-N-[5-(1,2,3,4-tetrahydro-1-naphthalenylamino)-1,3,4-thiadiazol-2-yl]-2-propenamide], which inhibition at 25 µM is on record?
Answer: Its inhibition at 25 µM is 28.1%.

Question: How did the inhibition at 25 µM turn out when `CCCCCCCCCCCNc1nnc(NC(=O)c2ccc(Cl)c(Cl)c2)s1` [compound 375, 3,4-dichloro-N-[5-(undecylamino)-1,3,4-thiadiazol-2-yl]benzamide] was run?
Answer: Its inhibition at 25 µM is 27.9%.

Question: `O=C(Nc1nnc(NCCC(c2ccccc2)c2ccccc2)s1)c1ccc(C(F)(F)F)cc1` [compound 376, N-{5-[(3,3-diphenylpropyl)amino]-1,3,4-thiadiazol-2-yl}-4-(trifluoromethyl)benzamide] was tested. Which inhibition at 25 µM did it give?
Answer: Its inhibition at 25 µM is 27.9%.

Question: `O=C(Nc1nnc(NCCc2ccccc2)s1)c1c(Cl)cccc1Cl` [compound 377, 2,6-dichloro-N-[5-(phenethylamino)-1,3,4-thiadiazol-2-yl]benzamide] was tested. Which inhibition at 25 µM did it give?
Answer: The inhibition at 25 µM was 27.8%.

Question: How did the inhibition at 25 µM turn out when `CCCCCCCC/C=C/CCCCCCCC(=O)Nc1nnc(NCCCn2ccnc2)s1` [compound 378, (E)-N-(5-{[3-(1H-imidazol-1-yl)propyl]amino}-1,3,4-thiadiazol-2-yl)-9-octadecenamide] was run?
Answer: Its inhibition at 25 µM is 27.8%.

Question: With `O=C(/C=C/c1ccccc1)Nc1nnc(NCCNc2ccccc2)s1` [compound 379, (E)-N-{5-[(2-anilinoethyl)amino]-1,3,4-thiadiazol-2-yl}-3-phenyl-2-propenamide] as the compound, how does the inhibition at 25 µM read?
Answer: The inhibition at 25 µM was 27.5%.

Question: Which inhibition at 25 µM does the source give for `O=C(Nc1nnc(NCC2CCCCC2)s1)c1ccc([N+](=O)[O-])o1` [compound 380, N-{5-[(cyclohexylmethyl)amino]-1,3,4-thiadiazol-2-yl}-5-nitro-2-furamide] here?
Answer: The inhibition at 25 µM was 27.5%.

Question: For `CC(C)c1cc(C(C)C)c(C(=O)Nc2nnc(NCCCN3CCCC3=O)s2)c(C(C)C)c1` [compound 381, 2,4,6-triisopropyl-N-(5-{[3-(2-oxo-1-pyrrolidinyl)propyl]amino}-1,3,4-thiadiazol-2-yl)benzamide], which inhibition at 25 µM is on record?
Answer: Its inhibition at 25 µM is 27.4%.

Question: With `O=C(CCCCCl)Nc1nnc(NCCCCc2ccccc2)s1` [compound 382, 5-chloro-N-{5-[(4-phenylbutyl)amino]-1,3,4-thiadiazol-2-yl}pentanamide] as the compound, how does the inhibition at 25 µM read?
Answer: Its inhibition at 25 µM is 27.3%.

Question: How did the inhibition at 25 µM turn out when `COc1ccccc1C(=O)Nc1nnc(NCCC(c2ccccc2)c2ccccc2)s1` [compound 383, N-{5-[(3,3-diphenylpropyl)amino]-1,3,4-thiadiazol-2-yl}-2-methoxybenzamide] was run?
Answer: The inhibition at 25 µM was 27.3%.

Question: For `O=C(Nc1nnc(NCC2CCCCC2)s1)c1ccc(Cl)c(Cl)c1` [compound 384, 3,4-dichloro-N-{5-[(cyclohexylmethyl)amino]-1,3,4-thiadiazol-2-yl}benzamide], which inhibition at 25 µM is on record?
Answer: The inhibition at 25 µM was 27.2%.

Question: How did the inhibition at 25 µM turn out when `O=C(Nc1nnc(NCC(c2ccccc2)c2ccccc2)s1)c1ccc(Br)cc1` [compound 385, 4-bromo-N-{5-[(2,2-diphenylethyl)amino]-1,3,4-thiadiazol-2-yl}benzamide] was run?
Answer: The inhibition at 25 µM was 27.2%.

Question: Which inhibition at 25 µM does the source give for `O=C(Nc1nnc(NCCC(c2ccccc2)c2ccccc2)s1)c1ccc(Br)cc1` [compound 386, 4-bromo-N-{5-[(3,3-diphenylpropyl)amino]-1,3,4-thiadiazol-2-yl}benzamide] here?
Answer: Its inhibition at 25 µM is 26.9%.

Question: Which inhibition at 25 µM does the source give for `COc1ccccc1C(=O)Nc1nnc(NCCCNC2CCCCC2)s1` [compound 387, N-(5-{[3-(cyclohexylamino)propyl]amino}-1,3,4-thiadiazol-2-yl)-2-methoxybenzamide] here?
Answer: Its inhibition at 25 µM is 26.8%.

Question: `CC(C)c1cc(C(C)C)c(C(=O)Nc2nnc(NCCC(=O)OC(C)(C)C)s2)c(C(C)C)c1` [compound 388, tert-butyl 3-({5-[(2,4,6-triisopropylbenzoyl)amino]-1,3,4-thiadiazol-2-yl}amino)propanoate] was tested. Which inhibition at 25 µM did it give?
Answer: The inhibition at 25 µM was 26.6%.

Question: `CC1(C)C2CC[C@@H](CNc3nnc(NC(=O)c4cc(F)cc(F)c4)s3)C1C2` (stereo partly drawn) [compound 389, N-[5-({[(2R)-6,6-dimethylbicyclo[3.1.1]hept-2-yl]methyl}amino)-1,3,4-thiadiazol-2-yl]-3,5-difluorobenzamide] was tested. Which inhibition at 25 µM did it give?
Answer: The inhibition at 25 µM was 26.5%.

Question: Which inhibition at 25 µM does the source give for `NS(=O)(=O)c1ccc(CCNc2nnc(NC(=O)CCCCCl)s2)cc1` [compound 390, N-(5-{[4-(aminosulfonyl)phenethyl]amino}-1,3,4-thiadiazol-2-yl)-5-chloropentanamide] here?
Answer: The inhibition at 25 µM was 26.3%.

Question: With `CCCCCCCC/C=C/CCCCCCCC(=O)Nc1nnc(NCCc2c[nH]cn2)s1` [compound 391, (E)-N-(5-{[2-(1H-imidazol-4-yl)ethyl]amino}-1,3,4-thiadiazol-2-yl)-9-octadecenamide] as the compound, how does the inhibition at 25 µM read?
Answer: Its inhibition at 25 µM is 26.2%.

Question: Which inhibition at 25 µM does the source give for `CC(C)(C)CNc1nnc(NC(=O)c2c(Cl)cccc2Cl)s1` [compound 392, 2,6-dichloro-N-[5-(neopentylamino)-1,3,4-thiadiazol-2-yl]benzamide] here?
Answer: Its inhibition at 25 µM is 26.2%.

Question: With `Cc1ccc(C(=O)Nc2nnc(NCCNc3ccccc3)s2)cc1` [compound 393, N-{5-[(2-anilinoethyl)amino]-1,3,4-thiadiazol-2-yl}-4-methylbenzamide] as the compound, how does the inhibition at 25 µM read?
Answer: Its inhibition at 25 µM is 26.1%.

Question: Which inhibition at 25 µM does the source give for `COc1ccccc1C(=O)Nc1nnc(NCCNc2ccccc2)s1` [compound 394, N-{5-[(2-anilinoethyl)amino]-1,3,4-thiadiazol-2-yl}-2-methoxybenzamide] here?
Answer: Its inhibition at 25 µM is 26%.

Question: For `Cc1ccc(C(=O)Nc2nnc(NCCCN3CCCC3=O)s2)cc1` [compound 395, 4-methyl-N-(5-{[3-(2-oxo-1-pyrrolidinyl)propyl]amino}-1,3,4-thiadiazol-2-yl)benzamide], which inhibition at 25 µM is on record?
Answer: Its inhibition at 25 µM is 25.9%.

Question: For `CC(C)c1cc(C(C)C)c(C(=O)Nc2nnc(NCCc3cccs3)s2)c(C(C)C)c1` [compound 396, 2,4,6-triisopropyl-N-(5-{[2-(2-thienyl)ethyl]amino}-1,3,4-thiadiazol-2-yl)benzamide], which inhibition at 25 µM is on record?
Answer: The inhibition at 25 µM was 25.9%.

Question: With `O=C(/C=C/c1ccccc1Cl)Nc1nnc(NCCN2CCCC2)s1` [compound 397, (E)-3-(2-chlorophenyl)-N-(5-{[2-(1-pyrrolidinyl)ethyl]amino}-1,3,4-thiadiazol-2-yl)-2-propenamide] as the compound, how does the inhibition at 25 µM read?
Answer: Its inhibition at 25 µM is 25.9%.

Question: Which inhibition at 25 µM does the source give for `NS(=O)(=O)c1ccc(CNc2nnc(NC(=O)c3ccc(C(F)(F)F)cc3)s2)cc1` [compound 398, N-(5-{[4-(aminosulfonyl)benzyl]amino}-1,3,4-thiadiazol-2-yl)-4-(trifluoromethyl)benzamide] here?
Answer: Its inhibition at 25 µM is 25.9%.

Question: Which inhibition at 25 µM does the source give for `CC(C)c1cc(C(C)C)c(C(=O)Nc2nnc(NCc3cccnc3)s2)c(C(C)C)c1` [compound 399, 2,4,6-triisopropyl-N-{5-[(3-pyridinylmethyl)amino]-1,3,4-thiadiazol-2-yl}benzamide] here?
Answer: The inhibition at 25 µM was 25.8%.
